Values of other authors in patent US20230414620A1, “TOPICAL RUXOLITINIB FOR TREATING LICHEN PLANUS” (Incyte Corporation, priority 2020, published 2023).

Key:
[1] = system: steroid refractory graft versus host disease (GVHD); details: systemic JAK1, 2 inhibition
[2] = system: refractory dermatomyositis (DM); details: case report

Compound: N#CC[C@H](C1CCCC1)n1cc(-c2ncnc3[nH]ccc23)cn1 [ruxolitinib, (R)-3-(4-(7H-pyrrolo[2,3-d]pyrimidin-4-yl)-1H-pyrazol-1-yl)-3-cyclopentylpropanenitrile]
- efficacy in steroid refractory GVHD [1]: highly effective
- response in refractory dermatomyositis [2]: exceptional responder
